Entries after “also recorded” stand apart in the source; their conditions may differ.
Legend:
dendritic cells = conditions: through modulation of dendritic cells; cited from earlier work
[1] = test system: graft-specific T cell lines; conditions: in vitro with stimulating allogeneic cells; cited from earlier work
skin and thyroid grafts = conditions: cited from earlier work
[2] = test system: CCl4-fibrosis induced mice; test: CCl4-induced hepatic fibrosis in mice: liver injury and fibrosis assessment; format: in vivo, mouse; conditions: for liver injury (Ishak injury score): CCl4 fibrosis-induced mice, treated vs untreated; for hepatic fibrosis (Ishak liver fibrosis scoring, Bioquant analysis): compared to the CCl4 fibrosis-induced untreated group, Copaxone 200 microgram/day I.P. or Linomycin 1 mg/ml drinking water, last 2 weeks of 6 weeks CCl4
Experimental: (§1) Hepatic fibrosis was induced by IP CCl4 administration for 6 weeks in 8 week-old male wild-type C57Bl/6 mice. Within the last 2 weeks animals were also treated with either Copaxone 200 microgram/day I.P (Group A), Linomycin given by drinking water 1 mg/ml (Group B) or normal saline (group C), and were compared to naïve mice (Group D). Eight animals were included in each group. Hepatic fibrosis was evaluated by Ishak Knodell score [Knodell, R. G. et al., Hepatology 1981; 1(5):431-5], hydroxyproline and by analyzing 36 Sirius Red stained histological liver sections per animal with Bioquant® morphometry system. Splenocytes were isolated for FACS analysis from all animal groups. The correlation between hepatic fibrosis and CD4, CD8, NK cells, iKIR and aKIR expression on splenocytes was assessed.
Hepatic fibrosis animal model: Hepatic fibrosis was induced by IP CCl4 (10% as diluted with corn oil) administration 5 microliter/g body weight; for 4-6 weeks in 8 week-old male mice.
(§2) Liver and colon histology: The posterior one-third of the liver, the rectosigmoid colon were fixed in 10% formalin for 24 hours and then paraffin-embedded in an automated tissue processor. […] sections were cut from each animal specimen. Hematoxylin and eosin (H&E) staining was performed for each animal section.
Liver sections (15 μm) were stained in 0.1% Sirius Red F3B in saturated picric acid (both from Sigma). Additionally, alpha smooth muscle actin immunohistochemistry was performed using the DAKO kit (CAT# U7033 EPOS, Monoclonal) according to the manufacturer's instructions.
Hepatic Fibrosis quantitation: Relative fibrosis area (expressed as a % of total liver area) was assessed by analyzing 36 Sirius red-stained liver sections per animal. Each field was acquired at 10× magnification and then analyzed using a computerized Bioquant® morphometry system. To evaluate the relative fibrosis area, the measured collagen area was divided by the net field area and then multiplied by 100. Subtraction of vascular lumenal area from the total field area yielded the final calculation of the net fibrosis area.
Alpha smooth muscle actin immunoblot: Immunoblot analysis of Alpha-SMA in liver extracts is performed as previously described [de Waal Malefyt, R., et al., J. Exp. Med. 1991; 174:915-924] with modifications. Whole-liver protein extracts were prepared in liver homogenization buffer (50 mmol/L Tris-HCl [pH 7.6], 0.25% Triton-X 100, 0.15 M NaCl, 10 mM CaCl2 and complete mini EDTA-free protease inhibitor cocktail (Roche Diagnostics, Mannheim, Germany). Then proteins (30 μg per lane) were resolved on a 10% SDS-polyacrylamide gel under reducing conditions. For immunoblotting, proteins were transferred to a Protran membrane and incubated overnight at 4° C. in a blocking buffer containing 5% skim milk. Anti-SMA mouse monoclonal antibody (DAKO, cat# M0851) and peroxidase-conjugated goat anti-mouse IgG (P.A.R.I.S., Compiègne, France) and enhanced chemiluminescence were used.

[3] = test system: relapsing-remitting multiple sclerosis; conditions: cited from earlier work
splenocytes [4] = test: FACS analysis of splenocytes in CCl4-fibrosis induced mice; format: in vivo, mouse; conditions: for spleen CD4:CD8 ratio: vs CCl4-induced fibrosis untreated group, FIG. 7; for spleen total number of NK cells: vs untreated fibrotic and naive groups, FIG. 8
Experimental: as §1
(§3) Splenocyte isolation: Spleens were harvested at the time of sacrifice and fractionated through a 70-μm nylon cell strainer. After RBC lysis, splenocytes were washed, suspended in RPMI 1640 medium and stored at 4° C. until FACS analysis.
(§4) Fluorescent-activated cell sorting analysis (FACS): splenocytes are analysed by direct immunofluorescence reactivity with a series of antibodies (Abs) using standard techniques on a Coulter flow cytometer (BECTON DICKINSON, USA). Briefly, 3×10^5 spleen cells are incubated for 30 minutes at 4° C. with Abs conjugated to fluorescein isothiocyanate (FITC), phycoerythrin (PE) or allophycocyanin (APC), washed three times, and resuspended in fixative solution with 2% paraformaldehyde for analysis. Antibodies used for staining splenocytes are monoclonal anti-mouse CD4, CD8 conjugated by PE and FITC respectively (BD Biosciences). For staining natural killer (NK) cells APC-conjugated rat anti-mouse CD49b/Pan-NK cells monoclonal antibody which identifies the majority of NK cells is used. For killer inhibitory receptors (iKIR) monoclonal mouse anti-mouse Ly-49C and Ly-49I conjugated by PE are used. For the killer activating receptor (aKIR) FITC-conjugated rat anti-mouse LY-49D monoclonal antibody were used. To defined the role of T regulatory cells we used the anti CD25 monoclonal antibodies. To identify lymphocytes staining with peridinin chlorophyll-α protein (Per-CP)-conjugated rat anti-mouse CD45 (BD Biosciences) was used. Lymphocyte subsets are presented as percentage of the CD45+ cells.

intrahepatic lymphocytes = test: FACS analysis of intrahepatic lymphocytes in CCl4-fibrosis induced mice; format: in vivo, mouse
colitis-induced mice = test: TNBS-colitis in mice: macroscopic and microscopic colitis score; format: in vivo, mouse; conditions: treated vs control colitis-induced mice
Experimental: Each group includes 10 male animals.
(§5) Following Ketamine/Xylazine anesthesia, animals were sacrificed, and serum, colons are harvested at day 12. Blood samples are obtained and frozen at −20° C. until assayed for cytokine levels (IL2, IL4, IFNg, IL10 and TGFb). Splenocyte subpopulations are analyzed by FACS for CD4 and CD8, NK markers, and killer inhibitory and activation receptors. Colons are assessed for inflammatory severity.
Colitis induction as inflammatory bowel disease animal model: TNBS-colitis was induced by rectal instillation of TNBS, 1 mg/mouse, dissolved in 100 μl of 50% ethanol as described [Trop S, Samsonov D, Gotsman I, Alper R, Diment J and Ilan Y (1999) Hepatology 29: 746-755].
as §2

serum cytokines = test: Serum cytokine levels in colitis-induced mice; format: in vivo, mouse; conditions: vs colitis-induced untreated group
Experimental: as §5

splenocytes [5] = test: FACS analysis of spleen cell populations in colitis-induced mice; format: in vivo, mouse
Experimental: as §5, §3, §4

Substance: glatiramer acetate [Copaxone]
- IL-10 production (dendritic cells): increase
- Th2 CD4 cell development (dendritic cells): promote
- interleukin-2 and interferon-gamma secretion of graft-specific T cell lines [1]: inhibited
- proliferation of graft-specific T cell lines [1]: inhibited
- skin graft survival (skin and thyroid grafts; skin grafting assay): prolonged
- functional deterioration of thyroid grafts (skin and thyroid grafts; thyroid grafting assay): inhibited
- anti-fibrotic effect in the animal model ([2]; CCl4 fibrosis mouse model, overall conclusion): significant anti-fibrotic effect
- liver injury (Ishak injury score) ([2]; listed as Glatiramer acetate): reduced liver injury
- liver injury (Ishak injury score) ([2]; listed as copaxon): no significant difference
- liver injury (Ishak injury score) ([2]; listed as glatiramer acetate): significantly lower
- fibrosis severity, % of collagen in the analyzed area ([2]; after CCl4 fibrosis induction, p<0.0001, FIG. 4): significantly reduced
- hepatic fibrosis (Ishak liver fibrosis scoring, Bioquant analysis) [2]: significant reduction of fibrosis
- hepatic fibrosis (Ishak liver fibrosis scoring, Bioquant analysis) ([2]; listed as glatiramer acetate): significantly lower
- alpha smooth muscle actin amounts (Western blot, liver) ([2]; vs CCl4 animal group, FIG. 5): significantly reduced
- disease activity and burden of disease (MRI measures) ([3]; European/Canadian study): significantly decrease
- tolerability ([3]; human, in vivo): generally well tolerated
- overall disability status ([3]; patients with RRMS): significantly improved
- efficacy by relapse rate, proportion of relapse-free patients, number of gadolinium-enhancing lesions ([3]; subcutaneous 20 mg/day, patients with RRMS): significantly effective
- spleen CD4 cells (splenocytes [4]; between fibrotic groups A, B and C, FIG. 6): no significant changes
- spleen CD8 cells (splenocytes [4]; compared to group C (p<0.05) or D (p<0.005), FIG. 6): significantly decreased
- spleen NK aKIR:NK iKIR ratio (splenocytes [4]; compared to the naive group (group D), p<0.0001, FIG. 9): significant increase
- spleen NK aKIR:NK iKIR ratio (splenocytes [4]; compared to the untreated fibrotic group (group C), p<0.05, FIG. 9): significantly lower
- spleen CD4:CD8 ratio (splenocytes [4]): increased; also recorded: significantly elevated
- spleen CD4:CD8 ratio (splenocytes [4]; listed as A): significantly elevated
- spleen total number of NK cells (splenocytes [4]): elevated
- spleen total number of NK cells (splenocytes [4]; listed as A): increased number
- intrahepatic CD4 cells (intrahepatic lymphocytes; between fibrotic groups A and C, FIG. 10): no significant changes
- intrahepatic NK cells number (intrahepatic lymphocytes; compared to fibrosis group C, p<0.0001, FIG. 12): significantly increased
- intrahepatic CD8 cells (intrahepatic lymphocytes; compared to group C, p<0.001, FIG. 10): significantly decreased
- intrahepatic CD4:CD8 ratio (intrahepatic lymphocytes; compared to group C, p<0.002, FIG. 11): significantly elevated
- macroscopic colitis score (tissue injury) (colitis-induced mice; FIG. 13a): prominent reduction
- microscopic colitis score (tissue injury) (colitis-induced mice; FIG. 13b, p<0.03): prominent reduction
- serum IL-10 level (serum cytokines; p<0.002, FIG. 18): significantly reduced
- serum IL-4 level (serum cytokines; p<0.004, FIG. 18): significantly reduced
- serum IFN-γ level (serum cytokines; p<0.006, FIG. 18): significantly reduced
- CD4 IFN-γ secreting cells (splenocytes [5]; colitis induced-Copaxone treated group, p<0.02, FIG. 16): increase
- spleen CD4 cell number (splenocytes [5]; colitis induced-Copaxone treated group, p<0.03, FIG. 15): significant increase
- spleen CD8 cell populations (splenocytes [5]; colitis-induced mice, FIG. 15): unaffected
- antigen presenting cells (APC), spleen (splenocytes [5]; colitis-induced mice, FIG. 17): seemed to be reduced
